Data reported in patent US11229203B2, “Method of formulation of combined microbe and agricultural chemistry, microbe-derivative composition, and use of same” (priority 2017, dated 2022).

How the values were obtained:
seeds = assay: Field trials and large-scale laboratory tests of seed treatments; format: in vivo; conditions: seeds treated with formulations containing only 0.7 μl/seed
Source text: Applicants expected that this compound as well as other microbial metabolites would have transitory but beneficial effects on plant growth, resistance to stresses and other advantages. However, as field trials were developed and conducted on seed treatments with this compound in field and large-scale laboratory tests, the effects were discovered to be neither transitory nor small.

plant = assay: Plant growth and productivity with 1-octen-3-ol in aerial solution or as seed treatment; format: in vivo; conditions: very low concentrations in aerial solution; duplicated by seed treatments at low concentrations
Source text: Applicants have begun evaluating the triggering molecules released in the rhizosphere since applicants expected that they might have both commercial and basic scientific uses. The expectation was they would have beneficial effects upon plants.

C=CC(O)CCCCC (centres unmarked) [Trichoderma 1-octen-3-ol, 1-octen-3-ol]
Duration of effects after seed treatment (seeds): season long effects were observed | Effect on plant growth and productivity (plant): enhances plant growth and productivity
